Experiments:
[1] = tested on: Dopaminergic neural-crest derived PC12 cells; assay: Dopamine secretion from dopaminergic PC12 cells (radioimmunoassay); format: cell-based, rat; settings: 10^-7 M; for dopamine levels in culture media, long-term: 3 to 48 hours (FIG. 6B); for stimulation of dopamine secretion, short-term: 5 to 30 min, effect within 10 min (FIG. 6A)
Description: Dopaminergic neural-crest derived PC12 cells were grown in 6-well plates, coated with poly-L-lysine, at a concentration of 10^6 cells/well. Cells were incubated with neurosteroids or the vehicle for several time periods; for the short-term experiments the incubation time ranged from 5 to 30 minutes and for the long-term from 3 to 48 hours. 1 mL of supernatants were transferred to tubes containing 200 μl 0.1 M HCl for measurement of dopamine, which was measured by radioimmunoassay (TriCat™ RIA, RE29395, IBL Immuno Biological Lab., Hamburg, Germany) using ^125I as a tracer. The analytical sensitivity of the method was 30 pg/ml, its intra-assay CV was 9.5%, and its inter-assay CV was 16.7%. The cross reactivity between dopamine and norepinephrine was <0.013%

[2] = tested on: Bcl-2 and Bcl-xL proteins; assay: Western blot of anti-apoptotic Bcl-2 and Bcl-xL proteins in serum-deprived PC12 cells; format: cell-based, rat; settings: 10 nM neurosteroid (FIG. 4)
Description: Neural-crest derived PC12 cells were cultured for 8 hours in the absence of serum, but supplemented with 10 nM of various neurosteroids. At the end of incubation cell lysates were subjected to electrophoresis through a 12% SDS-polyacrylamide gel. Then, proteins were transferred to nitrocellulose membranes, which were processed according to standard Western blotting procedures. To detect protein levels, membranes were incubated with the appropriate antibodies: Bcl-2, (Santa Cruz Biotechnology Inc., Santa Cruz, Calif., dilution 1:100) Bcl-xL (Cell Signalling Technology Inc., Beverly, Mass., dilution 1:100). A PC-based Image Analysis program was used to quantify the intensity of each band (Image Analysis, Inc., Ontario, Canada). To normalize for protein content, the blots were stripped and stained with anti-actin antibodies (Chemicon, Temecula, Calif., dilution 1:400); the concentration of each target protein was normalized versus actin.

[3] = tested on: DHEA specific membrane receptors; assay: [3H]DHEA competition binding on isolated PC12 cell membranes; parameters: species or system rat; settings: for Kd: isolated PC12 cell membranes, 5 nM [3H]DHEA (FIG. 5)
Description: PC12 rat sympathoadrenal cells were cultured in 225 cm^2 flasks and, after washing twice with PBS, they were detached from the flasks by vigorous shaking. After a centrifugation at 1500 g, they were homogenized by sonication, in a 50 mM Tris-HCl buffer pH 7.4 at 4° C., containing freshly added protease inhibitors (1 mM PMSF and 1 μg/ml aprotinin). Unbroken cells were removed by centrifugation at 1500 g (10 min at 4° C.), and membranes were collected by centrifuging at 102,000 g for 1 hr at 4° C. Membranes were washed once with Tris-HCl, briefly acidified at 4° C. (for 3 min) with 50 mM glycine (pH 5.0), and re-suspended in the same buffer. Protein content was assayed by the method of Bradford, using reagents from Bio-Rad (Hercules, Calif.). Membranes (at a final concentration of 2 mg/ml) were incubated with 5 nM [^3H]DHEA, in the absence (to determine the total binding) or presence of unlabeled neurosteroids and their synthetic spiro analogs, at concentrations varying from 10^−12 to 10^−6 M and at a final volume of 100 μl, in Tris-HCl buffer (50 mM, pH 7.4). Following a […] incubation in a water bath, at 37° C., membranes were collected on GF/B filters, prewet in 0.5% PEI solution at 4° C. The filters were washed three times with ice-cold Tris-HCl, dried, supplemented with scintillation medium (Sigma Hellas, Athens, Greece) and counted in a β-scintillation counter (Perkin Elmer, Foster City, Calif.) with 60% efficiency for Tritium.

[4] = tested on: Neural-crest derived PC12 cells; assay: APOPercentage apoptosis assay, serum-deprivation induced apoptosis of PC12 cells; format: cell-based, rat; settings: for IC50: Rattus norvegicus, PC-12, absence of serum 12 hours, ApoPercentage assay (FIG. 2), read-out: IC50 of anti-apoptotic, cytoprotective effect
Description: Neural-crest derived PC12 cells were maintained in culture at 5% CO2, at 37° C., in RPMI 1640 medium containing 2 mM L-glutamine, 15 mM HEPES, 100 units/ml penicillin, 0.1 mg/ml streptomycin, 10% horse serum, and 5% foetal calf serum. Serum free medium was supplemented with 1% bovine serum albumin (BSA). Different steroids, used at various concentrations, were initially diluted in ethanol. The final concentration of ethanol in each well, including controls was 0.01%. Conjugate DHEA-BSA was initially diluted in Phosphate Buffer Saline (PBS).
Cells were cultured in the absence of serum for 12 hours, supplemented with DHEA and various synthetic spiro neurosteroids at 10 nM. Cell apoptosis was quantitated with two different methods: The APOPercentage Apoptosis Assay (Biocolor Ltd., Belfast, N. Ireland) was used to quantify apoptosis, according to the manufacturer's instructions. Apoptosis was quantified following cell lysis by measuring the dye incorporated in apoptotic cells at 550 nm (reference filter 620 nm) using a colour filter microplate colorimeter (Dynatech MicroElisa reader, Chantilly, Va.) (see FIGS. 1 and 2). FACS Analysis: FACS analysis of apoptotic cells was performed according to our protocol (Proc Natl Acad Sci USA 101,8209 (2004)). Flow cytometry was performed with FACScan (Becton Dickinson, Heidelberg, Germany) and the results were analysed with the FACScan and Cell Quest softwares (see FIG. 3).

[5] = tested on: Primary cortical neurospheres; assay: Migration of neural cells from primary cortical neurospheres; format: cell-based, mouse; settings: 10^-7 M, within 24-48 hrs of culture, EGF/bFGF dependent (FIG. 7)
Description: Primary cortical neurospheres (21d) generated from wild type mice were cultured attached on PLL and laminin-coated coverslips in serum-free media in the presence or absence of EGF and bFGF (20 ng/ml final concentration each). For the screen, the media was supplemented with ethanol, retinoic acid (at-RA), DHEA, or the synthetic spiro neurosteroid BNN-93, at a final concentration of 10^−7M.

[6] = tested on: tyrosine hydroxylase mRNA; assay: Tyrosine hydroxylase (TH) RT-PCR in dopaminergic PC12 cells; format: cell-based, rat; settings: dopaminergic PC12 cells (FIG. 6C)
Description: Tyrosine Hydroxylase (TH) RT-PCR: Total RNA was extracted from dopaminergic PC12 cells using the Trizol Reagent (Invitrogen Life technologies, CA). One microgram of total RNA was reverse transcribed by the Thermo-Script RT-PCR System (Invitrogen) using random hexamers in a total volume of 20 μl. Two microliters of the RT product was used as a template, amplified by PCR using 2 mM MgCl2, one strength PCR buffer, 0.2 mM of sense and antisense primers, 0.2 mM dNTPs and 2.5 U AmpliTaq Gold DNA polymerase (Perkin Elmer ABD, Foster City, Calif.) in a final reaction volume of 50 μl. PCR was performed in a Perkin Elmer DNA Thermal Cycler. Primers for TH were 5′-[…]-3′ (sense), and 5-[…]-3 (antisense) and for G3PDH were, 5′-[…]-3′ (sense), and 5′-[…]-3′ (antisense). Oligonucleotides were synthesized by MWG-Biotech AG (Munich, Germany). After reverse transcription, the cDNA product was amplified by PCR, at 33 cycles. The cycle number (33) was chosen such that amplification of the products was in the linear range with respect to the amount of input cDNA. PCR for G3PDH was performed in parallel to assure good quality of RNA and cDNA preparations. Each cycle consisted of 60 s at 92° C. for denaturation, 120 s at 53° C. for annealing, and 180 s at 72° C. for extension (60 s at 98° C., 90 s at 55° C., and 150 s at 72° C. for G3PDH respectively). 10 μl of the amplified products (368 bp for TH and 983 bp for G3PDH) were separated on a 2% agarose gel and visualized by ethidium bromide staining.

[7] = tested on: progenitor neural cells; assay: Neurogenesis of progenitor neural cells isolated from mouse fetal brain; format: cell-based; settings: 100 nM, 24 hours (FIG. 8)
Description: This effect appeared to be EGF/bFGF dependent. […] The extent of migration of the first days in culture was mostly normalised as in most conditions cells had migrated out of the sphere to the periphery. The photographs shown (FIG. 7) were obtained on the 6th day of culture where migration effects are not so dramatic but still evident. Additionally, progenitor neural cells, isolated from mouse fetal brain, were exposed for 24 hours to 100 nM of BNN-93 or to the vehicle (control).

[8] = tested on: Bcl-2 protein and ERK1/2 kinase; assay: Western blot of Bcl-2 and phosphorylated ERK1/2 in serum deprived PC12 cells; format: cell-based, rat; settings: 8 hours, 10 nM BNN-124 or 20 ng/ml NGF (FIG. 9)
Description: Neural-crest derived PC12 cells were cultured for 8 hours in the absence of serum, but supplemented with 10 nM of synthetic neurosteroids of 20 ng/ml of NGF. At the end of incubation cell lysates were subjected to electrophoresis through a 12% SDS-polyacrylamide gel. Then proteins were transferred to nitrocellulose membranes, which were processed according to standard Western blotting procedures. To detect protein levels, membranes were incubated with the appropriate antibodies: Bcl-2 (Santa Cruz Biotechnology Inc., Santa Cruz, Calif., dilution 1:100), phosphorylated ERK1/2 (Cell Signalling Technology Inc., Beverly, Mass., dilution 1:100). To normalize for protein content, the blots were stripped and stained with anti-actin or anti-total ERK1/2 antibodies (Chemicon, Temecula, Calif., dilution 1:400).

[9] = target: T1, p75NTR NGF receptors (Homo sapiens, UniProt P08138); assay: [3H]DHEA competition binding on membranes from HEK293 p75NTR cells; settings: membranes from HEK293 p75NTR cells (FIG. 9)
T1 construct: expressed in transfected cells; host or cells: HEK293
T1 sequence (P08138 29-427): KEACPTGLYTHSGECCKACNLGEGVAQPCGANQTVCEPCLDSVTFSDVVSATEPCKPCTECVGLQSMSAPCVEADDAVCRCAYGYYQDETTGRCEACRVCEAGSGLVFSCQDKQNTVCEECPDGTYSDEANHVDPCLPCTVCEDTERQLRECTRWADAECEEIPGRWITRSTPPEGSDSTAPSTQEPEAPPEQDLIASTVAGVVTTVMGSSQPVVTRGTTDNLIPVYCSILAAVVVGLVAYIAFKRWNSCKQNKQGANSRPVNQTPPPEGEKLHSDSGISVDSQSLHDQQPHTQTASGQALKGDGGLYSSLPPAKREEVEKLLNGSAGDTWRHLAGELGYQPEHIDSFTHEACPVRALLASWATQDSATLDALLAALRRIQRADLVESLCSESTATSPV
Description: (§1) HEK293 cells were transfected with the cDNAs of TrkA and p75NTR, the high and low affinity receptors for nerve growth factor (NGF) (Ann Rev Biochem 72:604, 2003). Transfectants expressing the two NGF receptor subtypes were cultured in flasks and, after washing twice with PBS, they were detached from the flasks. After a centrifugation at 1500 g, they were homogenized by sonication, in a 50 mM Tris-HCl buffer pH 7.4 at 4° C., containing freshly added protease inhibitors (1 mM PMSF and 1 μg/ml aprotinin). Unbroken cells were removed by centrifugation at 1500 g (10 min at 4° C.), and membranes were collected by centrifuging at 102,000 g for 1 hr at 4° C. Membranes were washed once with Tris-HCl, briefly acidified at 4° C. (for 3 min) with 50 mM glycine (pH 5.0), and re-suspended in the same buffer. Protein content was assayed by the method of Bradford, using reagents from Bio-Rad (Hercules, Calif.). Membranes (at a final concentration of 2 mg/ml) were incubated with 5 nM [^3H]DHEA, in the absence (to determine the total binding) or presence of unlabelled BNN-124 at concentrations varying from 10^−12 to 10^−6 M and at a final volume of 100 μl, in Tris-HCl buffer (50 mM, pH 7.4). […] The filters were washed three times with ice-cold Tris-HCl, dried and counted in a β-scintillation counter (Perkin Elmer, Foster City, Calif.) with 60% efficiency for tritium.

[10] = target: T2, TrkA NGF receptors (Homo sapiens, UniProt P04629); assay: [3H]DHEA competition binding on membranes from HEK293 TrkA cells; settings: membranes from HEK293 TrkA cells (FIG. 9)
T2 construct: expressed in transfected cells; host or cells: HEK293
T2 sequence (P04629 33-796): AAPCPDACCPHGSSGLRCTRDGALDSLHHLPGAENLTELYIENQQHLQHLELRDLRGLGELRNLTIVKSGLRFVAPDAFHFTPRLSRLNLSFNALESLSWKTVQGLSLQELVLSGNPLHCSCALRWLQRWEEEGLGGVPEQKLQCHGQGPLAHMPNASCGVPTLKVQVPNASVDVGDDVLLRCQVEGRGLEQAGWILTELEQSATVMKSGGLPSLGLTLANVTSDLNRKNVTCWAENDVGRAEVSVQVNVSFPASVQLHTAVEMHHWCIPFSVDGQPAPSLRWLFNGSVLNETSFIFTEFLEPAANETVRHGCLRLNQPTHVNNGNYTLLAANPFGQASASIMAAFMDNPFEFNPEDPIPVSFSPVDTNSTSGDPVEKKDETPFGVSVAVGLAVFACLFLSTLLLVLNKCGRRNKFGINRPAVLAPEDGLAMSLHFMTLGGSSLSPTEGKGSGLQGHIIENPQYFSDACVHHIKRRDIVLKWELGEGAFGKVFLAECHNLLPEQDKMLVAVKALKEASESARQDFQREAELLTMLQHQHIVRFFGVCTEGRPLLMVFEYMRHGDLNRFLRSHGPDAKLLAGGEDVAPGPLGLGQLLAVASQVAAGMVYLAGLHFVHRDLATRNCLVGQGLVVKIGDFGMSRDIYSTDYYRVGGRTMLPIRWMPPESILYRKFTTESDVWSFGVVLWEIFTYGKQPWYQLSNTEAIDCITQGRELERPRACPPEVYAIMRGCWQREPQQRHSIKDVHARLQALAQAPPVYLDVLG
Description: as §1

Molecule	dopamine levels in culture media, long-term [1]	stimulation of dopamine secretion, short-term [1]	levels of anti-apoptotic Bcl-2 and Bcl-xL proteins [2]	displacement of specific [3H]DHEA binding ([3]; at 1 μM, PC12 cell membranes)	Kd [3] [nM]	IC50 [4] [nM]	migration of neural cells to the periphery of the neurospheres [5]	induction of tyrosine hydroxylase mRNA [6]	neurogenesis and differentiation of progenitors to neural cells [7]	induction of anti-apoptotic Bcl-2 protein and phosphorylation of ERK1/2 kinase [8]	Kd [9] [nM]	Kd [10] [nM]	competition for [3H]DHEA binding ([3]; at 1 μM, PC12 cell membranes)	reversal of serum deprivation-induced apoptosis ([4]; absence of serum 12 hours, steroids at 10 nM (FIG. 1)) [%]
C[C@]12CC[C@H](O)CC1=CCC1C2CC[C@@]2(C)C1CC[C@@]21OC1CO (stereo partly drawn) [BNN-93, 3β,21-dihydroxy-17α,20-epoxy-5-pregnene]	increase of dopamine levels peaking at 24 h	doubling their levels	preventing this effect	approximately 60%	11.2	4.16	extensive migration	strong induction	stimulated neurogenesis and differentiation					
C[C@]12CC[C@H](O)CC1=CCC1C2CC[C@@]2(C)C1CC[C@]21O[C@H]1CO (stereo partly drawn) [BNN-124, (20S)-3β,21-dihydroxy-17β,20-epoxy-5-pregnene]			preventing this effect	approximately 60%	0.33	68.4				same effect	1	0.29		
C[C@]12CC[C@H](O)CC1=CC[C@@H]1[C@@H]2CC[C@]2(C)C(=O)CC[C@@H]12 [DHEA, dehydroepiandrosterone, reference compound]		doubling their levels	preventing this effect		1.1	0.15	extensive migration						Almost complete competition	~50
C[C@]12CC[C@H](OS(=O)(=O)O)CC1=CC[C@@H]1[C@@H]2CC[C@]2(C)C(=O)CC[C@@H]12 [DHEAS, reference compound]	increase of dopamine levels peaking at 24 h							strong induction						
NGF: nerve growth factor										inducing				
